Measured values from patent US11377442B2, “Small molecule agonists and antagonists of NR2F6 activity” (ZANDER THERAPEUTICS, INC., priority 2016, dated 2022).
Read-outs that look alike come from different tables or passages of the source.

Tests used:
Assay type in all cases: cell-based
[1] = system: Renilla; assay: Renilla signal in NR2F6 agonist screening, cmpd/DMSO; conditions: Renilla, F4
[2] = molecular target: T1, NR2F6 LBD (Homo sapiens, UniProt P10588); assay: NR2F6 LBD transient transfection; conditions: LBD
T1 construct: expressed in transfected cells
T1 sequence (P10588 165-393 limits assumed): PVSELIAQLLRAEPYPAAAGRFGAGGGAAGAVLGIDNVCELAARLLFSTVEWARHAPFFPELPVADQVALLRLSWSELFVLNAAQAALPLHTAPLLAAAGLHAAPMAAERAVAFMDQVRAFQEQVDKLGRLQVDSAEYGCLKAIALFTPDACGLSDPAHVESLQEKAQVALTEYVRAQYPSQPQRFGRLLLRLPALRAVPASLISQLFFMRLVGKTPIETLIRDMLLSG
Experimental: FIGS. 27A and 27B show NR2F6 and LBD transient transfection, respectively, for Compound D28. Higher concentrations were excluded due to lower signal (tox effect). FIGS. 27C and 27D show NR2F6 and LBD transient transfection at different concentrations for different compounds. 9 compounds were tested on LBD transfected cells (40, 10, 2 and 0.5 μM, 4 replicates). FIGS. 27E and 27F show toxicity of Compound D28. 9 compounds were tested for cytotoxicity on LBD transfected cells (40, 10, 2 and 0.5 μM, 4 replicates). […] Cytotoxicity normalized to DMSO is shown in FIG. 27F (0% cytotoxicity corresponds to DMSO signal, 100%—zero signal).
FIGS. 34A and 34B show NR2F6 LBD transient transfection for Compound E21. 9 compounds were tested on LBD transfected cells (40, 10, 2 and 0.5 μM, 4 replicates). FIGS. 34C and 34D show NR2F6 and LBD transient transfection at different concentrations for different compounds. 9 compounds were tested on LBD transfected cells (40, 10, 2 and 0.5 μM, 4 replicates). […] Cytotoxicity normalized to DMSO is shown in FIG. 34D (0% cytotoxicity corresponds to DMSO signal, 100%—zero signal). All compounds were tested at 5, 10, 25 and 50 uM in duplicates. Dog PBMC (1×10^6 cells/mL) were activated by 10 ng/mL PMA+500 ng/mL ionomycin. Data were normalized to controls with (100%)/without (0%) PMA+ionomycin activation.
FIGS. 39A and 39B show NR2F6 LBD transient transfection for Compound F1. 9 compounds were tested on LBD transfected cells (40, 10, 2 and 0.5 μM, 4 replicates). FIGS. 39C and 39D show toxicity of NR2F6 LBD transient transfection. 9 compounds were tested for cytotoxicity on LBD transfected cells (40, 10, 2 and 0.5 μM, 4 replicates). Tox effect causes lower signal compared to DMSO. Cytotoxicity normalized to DMSO is shown in FIG. 39D (0% cytotoxicity corresponds to DMSO signal, 100%—zero signal).

[3] = system: HEK293 pGL4; assay: Firefly_pGL signal, cmpd/DMSO (pGL4 control cells); conditions: Homo sapiens
[4] = molecular target: T2, NR2F6 (Homo sapiens, UniProt P10588); assay: NR2F6 agonist screening, Firefly signal cmpd/DMSO
T2 construct: expressed in transfected cells; also transient transfection
T2 sequence (P10588 1-404): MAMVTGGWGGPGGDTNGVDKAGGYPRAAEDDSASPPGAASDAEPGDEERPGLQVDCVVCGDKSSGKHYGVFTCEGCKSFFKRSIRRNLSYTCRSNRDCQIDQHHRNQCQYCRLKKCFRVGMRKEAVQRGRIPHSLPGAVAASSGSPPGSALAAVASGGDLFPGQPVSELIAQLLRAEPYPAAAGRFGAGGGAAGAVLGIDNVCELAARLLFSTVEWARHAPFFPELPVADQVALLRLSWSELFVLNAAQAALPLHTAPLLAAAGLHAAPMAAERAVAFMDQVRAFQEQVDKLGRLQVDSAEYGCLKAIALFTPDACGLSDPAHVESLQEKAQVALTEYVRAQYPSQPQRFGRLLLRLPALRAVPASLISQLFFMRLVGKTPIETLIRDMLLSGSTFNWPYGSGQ

[5] = read-out: Renilla, F4, cmpd/DMSO (mean)
[6] = 1% FBS, read-out: Renilla, F4, 1% FBS, cmpd/DMSO (mean)
[7] = 10% FBS, read-out: Renilla, F4, 10% FBS, cmpd/DMSO (mean)
[8] = HEK293, 0.5 uM, pGL4, read-out: Firefly pGL4, cmpd/DMSO (mean)
[9] = HEK293, 2 uM, pGL4, read-out: Firefly pGL4, cmpd/DMSO (mean)
[10] = HEK293, 10 uM, pGL4, read-out: Firefly pGL4, cmpd/DMSO (mean)
[11] = HEK293, 40 uM, pGL4, read-out: Firefly pGL4, cmpd/DMSO (mean)
[12] = HEK293, pGL4, 1% FBS, 0.5 uM, read-out: Firefly, pGL4, 1% FBS, cmpd/DMSO (mean)
[13] = HEK293, pGL4, 1% FBS, 2 uM, read-out: Firefly, pGL4, 1% FBS, cmpd/DMSO (mean)
[14] = HEK293, pGL4, 1% FBS, 10 uM, read-out: Firefly, pGL4, 1% FBS, cmpd/DMSO (mean)
[15] = HEK293, pGL4, 1% FBS, 40 uM, read-out: Firefly, pGL4, 1% FBS, cmpd/DMSO (mean)
[16] = HEK293, pGL4, 10% FBS, 0.5 uM, read-out: Firefly, pGL4, 10% FBS, cmpd/DMSO (mean)
[17] = HEK293, pGL4, 10% FBS, 2 uM, read-out: Firefly, pGL4, 10% FBS, cmpd/DMSO (mean)
[18] = HEK293, pGL4, 10% FBS, 10 uM, read-out: Firefly, pGL4, 10% FBS, cmpd/DMSO (mean)
[19] = HEK293, pGL4, 10% FBS, 40 uM, read-out: Firefly, pGL4, 10% FBS, cmpd/DMSO (mean)

In the case of O=S1(=O)C[C@H](NC2CCCCC2)[C@@H](S(=O)(=O)c2ccccc2)C1 [Compound D111], the fold induction at 0.5 µM [1, 5] is reported as 1, the fold induction at 2 µM [1, 5] is reported as 1 and the fold induction at 10 µM [1, 5] is reported as 1.1. It also gave a fold induction at 40 µM [1, 5] of 1.4, a fold induction at 0.5 µM [1, 6] of 1.1 and a fold induction at 2 µM [1, 6] of 1.1. It also gave a fold induction at 10 µM [1, 6] of 1.3, a fold induction at 40 µM [1, 6] of 1.7 and a fold induction at 0.5 µM [1, 7] of 1.1. For the same compound, the fold induction at 2 µM [1, 7] was 1.1, the fold induction at 10 µM [1, 7] was 1.2 and the fold induction at 40 µM [1, 7] was 1.8. The “Firefly LBD, cmpd/DMSO (mean)” value ([2]; 0.5 uM) was 1.1, the “Firefly LBD, cmpd/DMSO (mean)” value ([2]; 2 uM) was 1.4 and the “Firefly LBD, cmpd/DMSO (mean)” value ([2]; 10 uM) was 1.6. For the same compound, the “Firefly LBD, cmpd/DMSO (mean)” value ([2]; 40 uM) was 1.9, the fold induction at 0.5 µM [3, 8] was 0.9 and the fold induction at 2 µM [3, 9] was 1.4. The fold induction at 10 µM [3, 10] was 1.5, the fold induction at 40 µM [3, 11] was 1.8 and the fold induction at 0.5 µM [3, 12] was 1. For the same compound, the fold induction at 2 µM [3, 13] was 1.2, the fold induction at 10 µM [3, 14] was 1.2 and the fold induction at 40 µM [3, 15] was 1.2. The fold induction at 0.5 µM [3, 16] was 1.2, the fold induction at 2 µM [3, 17] was 1.2 and the fold induction at 10 µM [3, 18] was 1.3. For the same compound, the fold induction at 40 µM [3, 19] was 1.3, the “Firefly F4, cmpd/DMSO (mean)” value ([4]; 0.5 uM) was 1.1 and the “Firefly F4, cmpd/DMSO (mean)” value ([4]; 2 uM) was 1.1. The “Firefly F4, cmpd/DMSO (mean)” value ([4]; 10 uM) was 2.0, the “Firefly F4, cmpd/DMSO (mean)” value ([4]; 40 uM) was 2.7 and the “F4, Firefly/Renilla for S/B(F4) > 3” value ([4]; 10% FBS, 40 uM) was 2.0. For the same compound, the “Firefly, F4/pGL4 for S/B(F4) > 3” value ([4]; 10% FBS, 40 uM) was 2.7, the “Firefly, F4, 1% FBS, cmpd/DMSO (mean)” value ([4]; 1% FBS, 0.5 uM) was 1.0 and the “Firefly, F4, 1% FBS, cmpd/DMSO (mean)” value ([4]; 1% FBS, 2 uM) was 1.1. The “Firefly, F4, 1% FBS, cmpd/DMSO (mean)” value ([4]; 1% FBS, 10 uM) was 1.6, the “Firefly, F4, 1% FBS, cmpd/DMSO (mean)” value ([4]; 1% FBS, 40 uM) was 2.1 and the “Firefly, F4, 10% FBS, cmpd/DMSO (mean)” value ([4]; 10% FBS, 0.5 uM) was 1.6. The “Firefly, F4, 10% FBS, cmpd/DMSO (mean)” value ([4]; 10% FBS, 2 uM) was 1.6, the “Firefly, F4, 10% FBS, cmpd/DMSO (mean)” value ([4]; 10% FBS, 10 uM) was 1.1 and the “Firefly, F4, 10% FBS, cmpd/DMSO (mean)” value ([4]; 10% FBS, 40 uM) was 3.6.
C[C@@H]1C[C@H](C)CN([C@H]2CS(=O)(=O)C[C@@H]2S(=O)(=O)c2ccccc2)C1 [Compound D112] gave a fold induction at 0.5 µM [1, 5] of 1, a fold induction at 2 µM [1, 5] of 1.1 and a fold induction at 10 µM [1, 5] of 1.3. For the same compound, the fold induction at 40 µM [1, 5] was 1.6, the fold induction at 0.5 µM [1, 6] was 1.1 and the fold induction at 2 µM [1, 6] was 1.1. For the same compound, the fold induction at 10 µM [1, 6] was 1.4, the fold induction at 40 µM [1, 6] was 2 and the fold induction at 0.5 µM [1, 7] was 1. It also gave a fold induction at 2 µM [1, 7] of 1, a fold induction at 10 µM [1, 7] of 1.3 and a fold induction at 40 µM [1, 7] of 2.1. For the same compound, the “Firefly LBD, cmpd/DMSO (mean)” value ([2]; 0.5 uM) was 1.1, the “Firefly LBD, cmpd/DMSO (mean)” value ([2]; 2 uM) was 1.2 and the “Firefly LBD, cmpd/DMSO (mean)” value ([2]; 10 uM) was 1.8. The “Firefly LBD, cmpd/DMSO (mean)” value ([2]; 40 uM) was 1.9, the fold induction at 0.5 µM [3, 8] was 1 and the fold induction at 2 µM [3, 9] was 1.2. The fold induction at 10 µM [3, 10] was 2.2, the fold induction at 40 µM [3, 11] was 2.2 and the fold induction at 0.5 µM [3, 12] was 1.3. It also gave a fold induction at 2 µM [3, 13] of 1.2, a fold induction at 10 µM [3, 14] of 1.7 and a fold induction at 40 µM [3, 15] of 1.2. The fold induction at 0.5 µM [3, 16] was 1.3, the fold induction at 2 µM [3, 17] was 1 and the fold induction at 10 µM [3, 18] was 1.5. For the same compound, the fold induction at 40 µM [3, 19] was 1.3, the “Firefly F4, cmpd/DMSO (mean)” value ([4]; 0.5 uM) was 1.2 and the “Firefly F4, cmpd/DMSO (mean)” value ([4]; 2 uM) was 1.9. For the same compound, the “Firefly F4, cmpd/DMSO (mean)” value ([4]; 10 uM) was 2.8, the “Firefly F4, cmpd/DMSO (mean)” value ([4]; 40 uM) was 2.6 and the “F4, Firefly/Renilla for S/B(F4) > 3” value ([4]; 1% FBS, 40 uM) was 1.6. For the same compound, the “Firefly, F4/pGL4 for S/B(F4) > 3” value ([4]; 1% FBS, 40 uM) was 2.7, the “F4, Firefly/Renilla for S/B(F4) > 3” value ([4]; 10% FBS, 40 uM) was 2.3 and the “Firefly, F4/pGL4 for S/B(F4) > 3” value ([4]; 10% FBS, 40 uM) was 3.7. The “Firefly, F4, 1% FBS, cmpd/DMSO (mean)” value ([4]; 1% FBS, 0.5 uM) was 1.1, the “Firefly, F4, 1% FBS, cmpd/DMSO (mean)” value ([4]; 1% FBS, 2 uM) was 0.9 and the “Firefly, F4, 1% FBS, cmpd/DMSO (mean)” value ([4]; 1% FBS, 10 uM) was 1.6. The “Firefly, F4, 1% FBS, cmpd/DMSO (mean)” value ([4]; 1% FBS, 40 uM) was 3.2, the “Firefly, F4, 10% FBS, cmpd/DMSO (mean)” value ([4]; 10% FBS, 0.5 uM) was 1.2 and the “Firefly, F4, 10% FBS, cmpd/DMSO (mean)” value ([4]; 10% FBS, 2 uM) was 1.2. For the same compound, the “Firefly, F4, 10% FBS, cmpd/DMSO (mean)” value ([4]; 10% FBS, 10 uM) was 1.5 and the “Firefly, F4, 10% FBS, cmpd/DMSO (mean)” value ([4]; 10% FBS, 40 uM) was 5.0.
